Measured values reported in article PMC6768323, “Adverse Maternal, Fetal, and Postnatal Effects of Hexafluoropropylene Oxide Dimer Acid (GenX) from Oral Gestational Exposure in Sprague-Dawley Rats” (Environmental Health Perspectives, 2019).

Legend:
CV-1 cells = experiment: MTT cytotoxicity; format: cell-based
Experimental: HFPO-DA was assessed for agonism and antagonism of transcriptional activation for estrogen (ER), androgen (AR), and glucocorticoid receptors (GR). Method details for in vitro transactivation assays for ER ([Wilson et al. 2004a]), AR ([Hartig et al. 2002], [2007]), and GR ([Conley et al. 2017]; [Medlock Kakaley et al. 2018]) have been previously reported. Briefly, for ER activity we utilized the stably transfected T47D-KBluc cell line [publicly available via American Type Culture Collection (ATCC); CRL-2865] according to protocols provided by ATCC with the modification of Dulbecco’s Modified Eagle Media (DMEM) as the cell culture media instead of Roswell Park Memorial Institute (RPMI) media. […] All assays were run in 96-well plates and luminescence was detected using a BMG Fluostar Omega luminometer (BMG Labtech) following 24-h exposure. […] Cellular cytotoxicity across the dosing range was determined for CV-1 cells utilizing the 3-(4,5-dimethylthiazol-2-yl)-2,5-diphenyltetrazolium bromide (MTT) dye ([Mosmann 1983]). HFPO-DA was analyzed using n=2–3 biological replicate assay plates (i.e., unique cell passages) with four technical replicates per treatment per plate.

fetal testis = experiment: Fetal testis custom gene array for phthalate-like effects; format: in vivo, Sprague-Dawley rats; details: 62.5-500 mg/kg/d
Experimental: For the first two blocks, spanning the full dose range, late gestation (GD18) dams were euthanized by decapitation at ∼2h after the final oral dose [ ∼0830–1000 hours Eastern Standard Time (EST)]. Trunk blood was collected and serum isolated via centrifugation ( 10,000×g for 15 min at 4°C) in vacutainer tubes, transferred to 1.5-mL microcentrifuge tubes and stored at −80°C . Dam liver weight was recorded and a sample of liver tissue was collected into a polypropylene microcentrifuge tube containing 500μL TRIzol Reagent (Invitrogen) on ice. Fetuses were removed and two randomly selected fetuses per litter were weighed. […] Ex vivo fetal testis testosterone production was measured as previously reported ([Wilson et al. 2004b]) except the radioimmunoassay (RIA) utilized here was supplied by ALPCO (Catalog No. 72-TESTO-CT2, ALPCO). […]
Gene expression in fetal testes and fetal/maternal livers was assessed using reverse transcriptase real-time PCR of cDNA synthesized from RNA extracted from sample homogenates. […] RNA concentration and purity (260:280 ratio ≥1.8 ) were determined with a NanoDrop 2000 spectrophotometer (Thermo Scientific). […] PCR reactions were run using RT2 SYBR Green quantitative PCR (qPCR) Master Mix (SABioscience) on an iCycler iQ Real-Time Detection System (Bio-Rad) for fetal testes and on a CFX96 Touch Real-Time Detection System (Bio-Rad) for maternal and fetal livers. […]

O=C(O)C(F)(OC(F)(F)C(F)(F)C(F)(F)F)C(F)(F)F (centres unmarked) [HFPO-DA, Hexafluoropropylene oxide dimer acid]
cytotoxic dose (CV-1 cells): 300 µM
fetal testis gene expression versus controls (fetal testis): not significantly different from controls
